{"source": "patent US20210253710A1", "about": "“DIAGNOSTIC AND THERAPEUTIC METHODS FOR KIDNEY CANCER” (Genentech, Inc., priority 2018, published 2021)", "key": {"[1]": {"test_system": "patients with metastatic RCC with sarcomatoid histology", "test": "IMmotion151 subgroup analysis: efficacy in patients whose tumors had sarcomatoid histology", "type": "in vivo, human", "details": "for Median OS: clinical cutoff Aug. 13, 2018; for Confirmed INV-assessed ORR / Median INV-assessed PFS: clinical cutoff Sep. 29, 2017", "from_the_text": "Sarcomatoid renal carcinoma was defined as any histologic type of renal cell carcinoma containing a focus/foci of high-grade malignant spindle cells of any component relative to the entire tumor area. Such a classification required evidence of epithelial differentiation with concurrent areas of renal cell carcinoma or evidence of epithelial differentiation in the spindle cells with immunohistochemical positivity for keratin or epithelial membrane antigen (EMA). Frequent patterns include fibrosarcoma, malignant fibrous histiocytoma, and rhabdomyosarcoma. Focal spindling due to noncohesion of tumor cells was not considered to represent sarcomatoid differentiation. Any spindle component relative to the entire tumor area was sufficient. The degree of sarcomatoid differentiation was recorded as 1) any component, 2) >20% component, or 3) predominant sarcomatoid component.\n(§1) IMmotion151 is a multicenter, randomized, open-label, Phase III study evaluating the efficacy and safety of atezolizumab+bevacizumab vs those of sunitinib in patients with previously untreated, inoperable, locally advanced or metastatic RCC (FIG. 1). The co-primary endpoints were (i) investigator (INV)-assessed progression-free survival (PFS) in patients with ≥1% IC expressing PD-L1 (PD-L1+) and (ii) interim overall survival (OS) in the intent-to-treat (ITT) population. Secondary endpoints inclue INV-assessed PFS and OS in patients with sarcomatoid histology and are reported here with INV-assessed objective response rate (ORR), safety, patient-reported outcomes (PROs) of symptoms and function and biomarker evaluation.\nPatients were included in this subgroup analysis if their tumor had any component of sarcomatoid histology, referred to in this presentation as “All Sarc,” as reported by the investigator per the local pathology report. P values are for descriptive purposes only. Gene expression analyses of baseline tumor samples were performed as previously described and focused on T-effector and angiogenesis signatures (see, e.g., McDermott et al. Nat. Med. 24:749-757, 2018). The clinical cutoff for PFS, ORR, PRO and safety was Sep. 29, 2017, with a median follow-up of 13 months. The clinical cutoff for OS was Aug. 13, 2018, with a median follow-up of 17 months."}, "[2]": {"test_system": "safety-evaluable patients with locally advanced or metastatic RCC", "test": "IMmotion151 safety (adverse events, AESI)", "type": "in vivo", "details": "for Patients with ≥ 1 event: Adrenal insufficiency, All Grades / Patients with ≥ 1 event: Adrenal insufficiency, Grade 3-4 / Patients with ≥ 1 event: Colitis, All Grades / Patients with ≥ 1 event: Colitis, Grade 3-4 / Patients with ≥ 1 event: Hyperthyroidism, All Grades / Patients with ≥ 1 event: Hyperthyroidism, Grade 3-4 / Patients with ≥ 1 event: Hypothyroidism, All Grades / Patients with ≥ 1 event: Hypothyroidism, Grade 3-4 / Patients with ≥ 1 event: Liver function test abnormalities, All Grades / Patients with ≥ 1 event: Liver function test abnormalities, Grade 3-4 / Patients with ≥ 1 event: Pneumonitis, All Grades / Patients with ≥ 1 event: Pneumonitis, Grade 3-4 / Patients with ≥ 1 event: Rash, All Grades / Patients with ≥ 1 event: Rash, Grade 3-4: AESI; for Patients with ≥ 1 event: Any AESI, All Grades / Patients with ≥ 1 event: Any AESI, Grade 3-4: all treatment-emergent AEs", "method": "Patients in the Atezolizumab+Bevacizumab (“Atezo+Bev”) arm received both atezolizumab and bevacizumab until loss of clinical benefit, unacceptable toxicity or symptomatic deterioration attributed to disease progression, withdrawal of consent, or death, whichever occured first. Atezolizumab was administered at a fixed dose of 1200 milligrams (mg) via intravenous (IV) infusion on Days 1 and 22 of each 42-day cycle. Bevacizumab was be administered at a dose of 15 milligrams per kilogram (mg/kg) via IV infusion on Days 1 and 22 of each 42-day cycle. Patients in the sunitinib arm received sunitinib until loss of clinical benefit, unacceptable toxicity or symptomatic deterioration attributed to disease progression, withdrawal of consent, or death, whichever occured first. Sunitinib was administered at a dose of 50 mg once daily, orally via capsule, on Day 1 through Day 28 of each 42-day cycle.\nas §1\nPatients were included in this subgroup analysis if their tumor had any component of sarcomatoid histology, referred to in this presentation as “All Sarc,” as reported by the investigator per the local pathology report. P values are for descriptive purposes only. […] The clinical cutoff for PFS, ORR, PRO and safety was Sep. […] The clinical cutoff for OS was Aug."}, "[3]": {"details": "patients with >20% sarcomatoid component"}}, "note": "Marks after values point to notes of the source that are not given here."}
{"smiles": "CCN(CC)CCNC(=O)c1c(C)[nH]c(/C=C2\\C(=O)Nc3ccc(F)cc32)c1C", "note": "[Sunitinib, N-[2-(Diethylamino)ethyl]-5-[(Z)-(5-fluoro-2-oxo-1,2-dihydro-3H-indol-3-ylidene)methyl]-2,4-dimethyl-1H-pyrrole-3-carboxamide]", "values": [{"measurement": "CR", "setting": "[1]; All Sarc", "result": 3, "unit": "%"}, {"measurement": "Ongoing responses", "setting": "[1]; All Sarc", "result": 3, "unit": "n"}, {"measurement": "Median OS", "setting": "[1]; All Sarc", "result": 15.4, "unit": "mo"}, {"measurement": "Confirmed INV-assessed ORR", "setting": "[1]; All Sarc", "result": 14, "unit": "%"}, {"measurement": "Median INV-assessed PFS", "setting": "[1]; All Sarc", "result": 5.3, "unit": "mo"}, {"measurement": "CR", "setting": "[1]; PD-Li + Sarc", "result": 4, "unit": "%"}, {"measurement": "Ongoing responses", "setting": "[1]; PD-Li + Sarc", "result": 0, "unit": "n"}, {"measurement": "Median OS", "setting": "[1]; PD-Li + Sarc", "result": 15.0, "unit": "mo"}, {"measurement": "Confirmed INV-assessed ORR", "setting": "[1]; PD-Li + Sarc", "result": 12, "unit": "%"}, {"measurement": "Median INV-assessed PFS", "setting": "[1]; PD-Li + Sarc", "result": 5.6, "unit": "mo"}, {"measurement": "CR rate", "setting": "[1]; [3]", "result": 0, "unit": "%"}, {"measurement": "ORR", "setting": "[1]; [3]", "result": 4, "unit": "%"}, {"measurement": "overall response rate (ORR)", "setting": "[1]; patients with sarcomatoid differentiation (Example 1)", "result": 18, "unit": "%"}, {"measurement": "Treatment-related AEs", "setting": "[2]; All Safety Evaluable", "result": 96, "unit": "%"}, {"measurement": "Treatment-related AEs leading to discontinuation of any treatment component", "setting": "[2]; All Safety Evaluable", "result": 8, "unit": "%"}, {"measurement": "Treatment-related AEs leading to discontinuation of treatment regimen", "setting": "[2]; All Safety Evaluable", "result": 8, "unit": "%"}, {"measurement": "Treatment-related AEs, Grade 3-4", "setting": "[2]; All Safety Evaluable", "result": 54, "unit": "%"}, {"measurement": "Treatment-related deaths", "setting": "[2]; All Safety Evaluable", "result": "1^e n"}, {"measurement": "Patients with ≥ 1 event: Adrenal insufficiency, All Grades", "setting": "[2]; All Safety Evaluable", "result": 0, "unit": "%"}, {"measurement": "Patients with ≥ 1 event: Adrenal insufficiency, Grade 3-4", "setting": "[2]; All Safety Evaluable", "result": 0, "unit": "%"}, {"measurement": "Patients with ≥ 1 event: Colitis, All Grades", "setting": "[2]; All Safety Evaluable", "result": "<1", "unit": "%"}, {"measurement": "Patients with ≥ 1 event: Colitis, Grade 3-4", "setting": "[2]; All Safety Evaluable", "result": "<1", "unit": "%"}, {"measurement": "Patients with ≥ 1 event: Hyperthyroidism, All Grades", "setting": "[2]; All Safety Evaluable", "result": 3, "unit": "%"}, {"measurement": "Patients with ≥ 1 event: Hyperthyroidism, Grade 3-4", "setting": "[2]; All Safety Evaluable", "result": 0, "unit": "%"}, {"measurement": "Patients with ≥ 1 event: Hypothyroidism, All Grades", "setting": "[2]; All Safety Evaluable", "result": 26, "unit": "%"}, {"measurement": "Patients with ≥ 1 event: Hypothyroidism, Grade 3-4", "setting": "[2]; All Safety Evaluable", "result": "<1", "unit": "%"}, {"measurement": "Patients with ≥ 1 event: Liver function test abnormalities, All Grades", "setting": "[2]; All Safety Evaluable", "result": 18, "unit": "%"}, {"measurement": "Patients with ≥ 1 event: Liver function test abnormalities, Grade 3-4", "setting": "[2]; All Safety Evaluable", "result": 4, "unit": "%"}, {"measurement": "Patients with ≥ 1 event: Pneumonitis, All Grades", "setting": "[2]; All Safety Evaluable", "result": 0, "unit": "%"}, {"measurement": "Patients with ≥ 1 event: Pneumonitis, Grade 3-4", "setting": "[2]; All Safety Evaluable", "result": 0, "unit": "%"}, {"measurement": "Patients with ≥ 1 event: Rash, All Grades", "setting": "[2]; All Safety Evaluable", "result": 15, "unit": "%"}, {"measurement": "Patients with ≥ 1 event: Rash, Grade 3-4", "setting": "[2]; All Safety Evaluable", "result": "<1", "unit": "%"}, {"measurement": "Patients with ≥ 1 event: Any AESI, All Grades", "setting": "[2]; All Safety Evaluable", "result": 72, "unit": "%"}, {"measurement": "Patients with ≥ 1 event: Any AESI, Grade 3-4", "setting": "[2]; All Safety Evaluable", "result": 17, "unit": "%"}, {"measurement": "Treatment-related AEs", "setting": "[2]; Sarc Safety Evaluable", "result": 94, "unit": "%"}, {"measurement": "Treatment-related AEs leading to discontinuation of any treatment component", "setting": "[2]; Sarc Safety Evaluable", "result": 3, "unit": "%"}, {"measurement": "Treatment-related AEs leading to discontinuation of treatment regimen", "setting": "[2]; Sarc Safety Evaluable", "result": 3, "unit": "%"}, {"measurement": "Treatment-related AEs, Grade 3-4", "setting": "[2]; Sarc Safety Evaluable", "result": 49, "unit": "%"}, {"measurement": "Treatment-related deaths", "setting": "[2]; Sarc Safety Evaluable", "result": 0, "unit": "n"}, {"measurement": "Patients with ≥ 1 event: Adrenal insufficiency, All Grades", "setting": "[2]; Sarc Safety Evaluable", "result": 0, "unit": "%"}, {"measurement": "Patients with ≥ 1 event: Adrenal insufficiency, Grade 3-4", "setting": "[2]; Sarc Safety Evaluable", "result": 0, "unit": "%"}, {"measurement": "Patients with ≥ 1 event: Colitis, All Grades", "setting": "[2]; Sarc Safety Evaluable", "result": 1, "unit": "%"}, {"measurement": "Patients with ≥ 1 event: Colitis, Grade 3-4", "setting": "[2]; Sarc Safety Evaluable", "result": 0, "unit": "%"}, {"measurement": "Patients with ≥ 1 event: Hyperthyroidism, All Grades", "setting": "[2]; Sarc Safety Evaluable", "result": 1, "unit": "%"}, {"measurement": "Patients with ≥ 1 event: Hyperthyroidism, Grade 3-4", "setting": "[2]; Sarc Safety Evaluable", "result": 0, "unit": "%"}, {"measurement": "Patients with ≥ 1 event: Hypothyroidism, All Grades", "setting": "[2]; Sarc Safety Evaluable", "result": 16, "unit": "%"}, {"measurement": "Patients with ≥ 1 event: Hypothyroidism, Grade 3-4", "setting": "[2]; Sarc Safety Evaluable", "result": 0, "unit": "%"}, {"measurement": "Patients with ≥ 1 event: Liver function test abnormalities, All Grades", "setting": "[2]; Sarc Safety Evaluable", "result": 10, "unit": "%"}, {"measurement": "Patients with ≥ 1 event: Liver function test abnormalities, Grade 3-4", "setting": "[2]; Sarc Safety Evaluable", "result": 3, "unit": "%"}, {"measurement": "Patients with ≥ 1 event: Pneumonitis, All Grades", "setting": "[2]; Sarc Safety Evaluable", "result": 0, "unit": "%"}, {"measurement": "Patients with ≥ 1 event: Pneumonitis, Grade 3-4", "setting": "[2]; Sarc Safety Evaluable", "result": 0, "unit": "%"}, {"measurement": "Patients with ≥ 1 event: Rash, All Grades", "setting": "[2]; Sarc Safety Evaluable", "result": 14, "unit": "%"}, {"measurement": "Patients with ≥ 1 event: Rash, Grade 3-4", "setting": "[2]; Sarc Safety Evaluable", "result": 0, "unit": "%"}, {"measurement": "Patients with ≥ 1 event: Any AESI, All Grades", "setting": "[2]; Sarc Safety Evaluable", "result": 66, "unit": "%"}, {"measurement": "Patients with ≥ 1 event: Any AESI, Grade 3-4", "setting": "[2]; Sarc Safety Evaluable", "result": 11, "unit": "%"}]}
